# According to US9409884B2 (Rigel Pharmaceuticals, Inc., priority 2012, dated 2016):
# Target: AMPK
# Experiment: AMPK activation, enzyme-linked immunosorbent assay
# Format: biochemical
# Conditions: Table 8, compounds of Table 1
# How it was run: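 AMPK activation by test compounds was measured by enzyme-linked immunosorbent assay.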
row,Compound,EC50 [nM]
1,"Cc1c(C(=O)NC2CCN(Cc3ccccn3)CC2)oc2cc(OC3CCN(c4ccc(C(F)(F)F)cc4)CC3)ccc12 [Compound 1-68, 3-methyl-N-(1-(pyridin-2-ylmethyl)piperidin-4-yl)-6-(1-(4-(trifluoromethyl)phenyl)piperidin-4-yloxy)benzofuran-2-carboxamide]",< 100
2,"O=C(O)c1ccc(CN2CCC(NC(=O)c3ccc(OC4CCN(c5ccc(C(F)(F)F)cc5)CC4)nc3)CC2)cc1 [Compound 1-46, 4-((4-(6-(1-(4-(trifluoromethyl)phenyl)piperidin-4-yloxy)nicotinamido)piperidin-1-yl)methyl) benzoic acid]",1000 to 5000
3,"CN(C(=O)c1cc2cc(OC3CCN(c4ccc(C(F)(F)F)cc4)CC3)ccc2o1)C1CCN(C(=O)OC(C)(C)C)CC1 [Compound 1-102, tert-butyl 4-(N-methyl-5-(1-(4-(trifluoromethyl)phenyl)piperidin-4-yloxy)benzofuran-2-carboxamido) piperidine-1-carboxylate]",1000 to 5000

# Next, values leading:
row,EC50 [nM],Compound
1,> 10000,"O=C(N[C@@H]1CCNC1)c1cc2cc(OC3CCN(c4ccc(C(F)(F)F)cc4)CC3)ccc2o1 [Compound 1-121, (R)-N-(pyrrolidin-3-yl)-5-(1-(4-(trifluoromethyl)phenyl)piperidin-4-yloxy)benzofuran-2-carboxamide]"
2,> 10000,"O=C(c1ccc(F)cc1)N1CCC(NS(=O)(=O)c2ccc(OC3CCN(c4ccc(C(F)(F)F)cc4)CC3)nc2)CC1 [Compound 1-60, N-(1-(4-fluorobenzoyl)piperidin-4-yl)-6-(1-(4-(trifluoromethyl)phenyl)piperidin-4-yloxy)pyridine-3-sulfonamide]"
3,1000 to 5000,"O=C(NC1CCNCC1)c1ccnc(OC2CCN(c3ccc(C(F)(F)F)cc3)CC2)c1 [Compound 1-19, N-(piperidin-4-yl)-2-(1-(4-(trifluoromethyl)phenyl)piperidin-4-yloxy) isonicotinamide]"

# Same assay, conditions: Table 9, compounds of Table 2
row,EC50 [nM],Compound
1,> 100000,"NC(=O)c1ccc(CN2CCc3[nH]c4ccc(C(=O)NC5CCN(Cc6ccc(F)cc6)CC5)cc4c3C2)cc1 [Compound 2-48, 2-(4-carbamoylbenzyl)-N-(1-(4-fluorobenzyl)piperidin-4-yl)-2,3,4,5-tetrahydro-1H-pyrido[4,3-b]indole-8-carboxamide]"
2,1000 to 5000,"NC(=O)c1ccc(CN2CCC(NC(=O)c3ccc4[nH]c5c(c4c3)CN(Cc3ccc(C(F)(F)F)cc3)CC5)CC2)cc1 [Compound 2-52, N-(1-(4-carbamoylbenzyl)piperidin-4-yl)-2-(4-(trifluoromethyl)benzyl)-2,3,4,5-tetrahydro-1H-pyrido[4,3-b]indole-8-carboxamide]"

row,Compound,EC50 [nM]
1,"CC(C)(C)OC(=O)N1CCC(NC(=O)c2ccc3[nH]c4c(c3c2)CN(C(=O)OCc2ccccc2)CC4)CC1 [Compound 2-3, benzyl 8-(1-(tert-butoxycarbonyl)piperidin-4-ylcarbamoyl)-3,4-dihydro-1H-pyrido[4,3-b]indole-2(5H)-carboxylate]",10000 to 50000

# Same assay, conditions: Table 10, compounds of Table 3
row,EC50 [nM],Compound
1,100 to 1000,"N#Cc1ccc(CN2CCC(NC(=O)c3nc4ccc(OC5CCN(c6ccc(C(F)(F)F)cc6)CC5)cc4s3)CC2)cc1 [Compound 3-16, N-(1-(4-cyanobenzyl)piperidin-4-yl)-6-(1-(4-(trifluoromethyl)phenyl)piperidin-4-yloxy)benzo[d]thiazole-2-carboxamide]"

# Same assay, conditions: Table 11, compounds of Table 4
row,EC50 [nM],Compound
1,1000 to 5000,"CS(=O)(=O)c1ccc(CN2CCN(C(=O)c3ccc(C(=O)NC4CCN(Cc5ccc(C#N)cc5)CC4F)cn3)CC2)cc1 (stereo not drawn) [Compound 4-13, N-((3,4-trans)-1-(4-cyanobenzyl)-3-fluoropiperidin-4-yl)-6-(4-(4-(methylsulfonyl)benzyl)piperazine-1-carbonyl)nicotinamide]"

# Same assay, conditions: Table 12, compounds of Table 5
row,EC50 [nM],Compound
1,< 1000,"N#Cc1ccc(CN2CCC(NC(=O)c3cccc(OC4CCN(Cc5ccc(-n6cccn6)cc5)CC4)c3)CC2)cc1 [Compound 5-119, 3-(l-(4-(lH-pyrazol-1-yl)benzyl)piperidin-4-yloxy)-N-(1-(4-cyanobenzyl)piperidin-4-yl)benzamide]"
2,< 1000,"N#Cc1ccc(CN2CCC(NC(=O)c3cccc(OC4CCN(Cc5ccc(N6CCCC6)cc5)CC4)c3)CC2)cc1 [Compound 5-116, N-(1-(4-cyanobenzyl)piperidin-4-yl)-3-(1-(4-(pyrrolidin-1-yl)benzyl)piperidin-4-yloxy)benzamide]"

# Same assay, conditions: Table 13, compounds of Table 6
row,EC50 [nM],Compound
1,< 100,"N#Cc1ccc(CN2CCC(NC(=O)c3cc4cc(CN5CCN(Cc6ccc(F)cc6)CC5)ccc4o3)CC2)cc1 [Compound 6-13, N-(1-(4-cyanobenzyl)piperidin-4-yl)-5-((4-(4-fluorobenzyl)piperazin-1-yl)methyl)benzofuran-2-carboxamide]"
2,< 100,"COc1ccc(-c2cnn(C3CCN(C(=O)c4ccc5oc(C(=O)NC6CCN(Cc7ccc(C#N)cc7)CC6)cc5c4)CC3)c2)cc1 [Compound 6-125, N-(1-(4-cyanobenzyl)piperidin-4-yl)-5-(4-(4-(4-methoxyphenyl)-1H-pyrazol-1-yl)piperidine-1-carbonyl)benzofuran-2-carboxamide]"
3,< 100,"N#Cc1ccc(CN2CCC(NC(=O)c3cc4cc(C(=O)N5CCN(Cc6ccc(C(F)(F)F)cc6)CC5)ccc4o3)CC2)cc1 [Compound 6-127, N-(1-(4-cyanobenzyl)piperidin-4-yl)-5-(4-(4-(trifluoromethyl)benzyl)piperazine-1-carbonyl) benzofuran-2-carboxamide]"

# Same assay, conditions: Table 14, compounds of Table 7
row,Compound,EC50 [nM]
1,"COCCN(C(=O)c1ccc(C(=O)N2CCC(C(=O)c3ccc(OC)cc3)CC2)nc1)C1CCN(Cc2ccc(C#N)cc2)CC1 [Compound 7-17, N-(1-(4-cyanobenzyl)piperidin-4-yl)-6-(4-(4-methoxybenzoyl)piperidine-1-carbonyl)-N-(2-methoxyethyl)nicotinamide]",< 1000
2,"COc1ccc(C(=O)C2CCN(C(=O)c3ccc(C(=O)NC4CCN(Cc5ccc(C(F)(F)F)cc5)C[C@@H]4F)cn3)CC2)cc1 (stereo partly drawn) [Compound 7-28, N-((3,4-trans)-3-fluoro-1-(4-(trifluoromethyl)benzyl)piperidin-4-yl)-6-(4-(4-methoxybenzoyl)piperidine-1-carbonyl)nicotinamide]",< 1000
3,"Cc1cc(OC2CCN(C(=O)c3ccc(C(=O)NC4CCN(Cc5ccc(OC(F)(F)C(F)F)cc5)CC4)cn3)CC2)ccc1S(C)(=O)=O [Compound 7-64, 6-(4-(3-methyl-4-(methylsulfonyl)phenoxy)piperidine-1-carbonyl)-N-(1-(4-(1,1,2,2-tetrafluoroethoxy)benzyl)piperidin-4-yl)nicotinamide]",1000 to 10000

# Second part, the compound after the results:
row,EC50 [nM],Compound
1,50000 to 100000,"COc1ccc(C(=O)C2CCN(C(=O)c3ccc(C(=O)NC4CCNCC4)cn3)CC2)cc1 [Compound 7-115, 6-(4-(4-methoxybenzoyl)piperidine-1-carbonyl)-N-(piperidin-4-yl)nicotinamide]"
2,< 1000,"COc1ccc(C(=O)C2CCN(C(=O)c3ccc(C(=O)NC4CCN(Cc5ccc(C#N)cc5)C[C@@H]4C)cn3)CC2)cc1 (stereo partly drawn) [Compound 7-78, N-((3,4-trans)-1-(4-cyanobenzyl)-3-methylpiperidin-4-yl)-6-(4-(4-methoxybenzoyl)piperidine-1-carbonyl)nicotinamide]"
3,1000 to 10000,"CC(=O)c1ccc(Oc2ccc(NC(=O)c3ccc(C(=O)N4CCN(Cc5ccc(S(C)(=O)=O)cc5)CC4)nc3)cn2)cc1 [Compound 7-76, N-(6-(4-acetylphenoxy)pyridin-3-yl)-6-(4-(4-(methylsulfonyl)benzyl)piperazine-1-carbonyl) nicotinamide]"
